Measurements published in patent publication US11400019B2, “Sustained release drug delivery systems with reduced impurities and related methods” (DURECT CORPORATION, priority 2020, dated 2022).
Counter-ions that a name gives are not always drawn.

Key:
[1] = tested on: patients undergoing elective arthroscopic shoulder surgery; assay: Example 13 trial: safety; type: in vivo, human; settings: safety population
Source text: Pharmacokinetic/pharmacodynamic (PK/PD) relationships were to be assessed as part of central nervous system (CNS) toxicity monitoring and cardiac monitoring. For patients not selected for PK-profiling, if a cardiac or CNS event occurred that met the criteria for a serious adverse event (SAE) or a severe non-SAE, a blood sample for PK analysis was to be taken as close to the event as possible.
The incidence of adverse events (AEs); the incidence of bupivacaine-related CNS side effects; clinical laboratory tests; vital signs; 12-lead ECGs; and physical examinations.
Evaluation by the investigator of wound healing and tissue conditions at the surgical wound on Days 7 and 14, and at the 6-month follow-up visit. An MRI of the shoulder as well as a functionality assessment of the shoulder using the Constant-Murley score were to be performed at the 6-month follow-up visit.

[2] = tested on: subjects undergoing elective outpatient laparoscopic cholecystectomy; assay: Example 16 trial: pain intensity on movement after laparoscopic cholecystectomy; type: in vivo, human; settings: Part 2 (N = 148 per group)
Procedure: The trial included: 1) a randomized, parallel-group, double-blind, placebo-controlled study (Part 1) and a randomized, parallel-group, double-blind, bupivacaine HCl active-controlled study (Part 2).
Part 1: Pain intensity on movement measured at scheduled time points from 0 to 72 hours following test drug administration, adjusted for prior rescue medication use and analyzed by a mixed effect ANOVA model of repeated measures (MMRM).
Part 2: Pain intensity on movement measured at scheduled time points from 0 to 48 hours following test drug administration, adjusted for prior rescue medication use and analyzed by a mixed effect ANOVA model of repeated measures (MMRM).

CCCCN1CCCCC1C(=O)Nc1c(C)cccc1C (stereo not shown) [bupivacaine HCl, bupivacaine hydrochloride]
All TEAEs, % of patients [1]: 37.9%
All TEAEs, n (patients with at least one event) [1]: 11
TEAE Alanine aminotransferase increased, % of patients [1]: 0.0%
TEAE Cardiac disorders, % of patients [1]: 10.3%
TEAE Gastrointestinal disorders, % of patients [1]: 3.4%
TEAE General disorders and administration site conditions, % of patients [1]: 0.0%
TEAE Headache, % of patients [1]: 3.4%
TEAE Injury, poisoning and procedural complications, % of patients [1]: 0.0%
TEAE Investigations, % of patients [1]: 6.9%
TEAE Musculoskeletal and connective tissue disorders, % of patients [1]: 6.9%
TEAE Musculoskeletal pain, % of patients [1]: 6.9%
TEAE Nausea, % of patients [1]: 3.4%
TEAE Nervous system disorders, % of patients [1]: 13.8%
TEAE Respiratory, thoracic and mediastinal disorders, % of patients [1]: 6.9%
TEAE Skin and subcutaneous tissue disorders, % of patients [1]: 6.9%
Pain intensity on movement 0 to 48 hours, Mean [2]: 5.87
